Structures are written as SMILES.

The target in the test is T1, full length human wildtype Btk (Homo sapiens, UniProt Q06187).
T1 construct: V5 (C); 6xHis (C); made in house; host or cells: Sf9 cells (baculovirus, pFastBac)
T1 sequence (Q06187 whole entry): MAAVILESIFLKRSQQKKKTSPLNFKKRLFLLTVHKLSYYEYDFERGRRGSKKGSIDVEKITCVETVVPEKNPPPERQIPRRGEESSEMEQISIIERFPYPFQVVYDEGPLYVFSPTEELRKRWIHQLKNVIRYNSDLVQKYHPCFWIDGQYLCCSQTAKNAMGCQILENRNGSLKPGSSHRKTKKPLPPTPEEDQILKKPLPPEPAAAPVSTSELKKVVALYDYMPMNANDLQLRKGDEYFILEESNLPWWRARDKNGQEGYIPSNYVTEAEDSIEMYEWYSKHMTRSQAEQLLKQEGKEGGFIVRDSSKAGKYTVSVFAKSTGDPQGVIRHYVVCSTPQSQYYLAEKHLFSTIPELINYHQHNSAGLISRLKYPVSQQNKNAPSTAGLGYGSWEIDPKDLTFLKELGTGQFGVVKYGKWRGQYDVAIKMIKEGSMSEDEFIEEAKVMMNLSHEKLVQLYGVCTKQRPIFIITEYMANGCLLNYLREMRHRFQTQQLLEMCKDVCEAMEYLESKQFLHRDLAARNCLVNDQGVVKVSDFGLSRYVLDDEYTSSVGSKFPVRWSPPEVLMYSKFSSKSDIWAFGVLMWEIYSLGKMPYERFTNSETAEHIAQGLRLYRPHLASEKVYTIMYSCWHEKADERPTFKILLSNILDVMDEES
In words: Biochemical Btk Kinase Assay (Example 901). The settings on record: read-out: BTK LC3K (Ki). How it is done:
Formula I compounds were tested by a standard biochemical Btk, Kinase Assay (Example 901). A generalized procedure for a standard biochemical Btk, Kinase Assay that can be used to test Formula I compounds is as follows. A master mix minus Btk enzyme is prepared containing 1× Cell Signaling kinase buffer (25 mM Tris-HCl, pH 7.5, 5 mM beta-glycerophosphate, 2 mM dithiothreitol, 0.1 mM Na3VO4, 10 mM MgCl2), 0.5 μM Promega PTK Biotinylated peptide substrate 2, and 0.01% BSA. A master mix plus Btk enzyme is prepared containing 1× Cell Signaling kinase buffer, 0.5 μM (micromolar) PTK Biotinylated peptide substrate 2, 0.01% BSA, and 100 ng/well (0.06 mU/well) Btk enzyme. Btk enzyme is prepared as follows: full length human wildtype Btk (accession number NM-000061) with a C-terminal V5 and 6×His tag was subcloned into pFastBac® vector (Invitrogen/Life Technologies) for making baculovirus carrying this epitope-tagged Btk. Generation of baculovirus is done based on Invitrogen's instructions detailed in its published protocol “Bac-to-Bac Baculovirus Expression Systems” (Invitrogen/Life Technologies, Cat. Nos. 10359-016 and 10608-016). Passage 3 virus is used to infect Sf9 cells to overexpress the recombinant Btk protein. The Btk protein is then purified to homogeneity using Ni-NTA column. The purity of the final protein preparation is greater than 95% based on the sensitive Sypro-Ruby staining. A solution of 200 μM ATP is prepared in water and adjusted to pH 7.4 with 1N NaOH. A quantity of 1.25 μL (microliter) of compounds in 5% DMSO is transferred to a 96-well 2 area Costar polystyrene plate. Compounds are tested singly and with an 11-point dose-responsive curve (starting concentration is 10 μM; 1:2 dilution). A quantity of 18.75 μL of master mix minus enzyme (as a negative control) and master mix plus enzyme is transferred to appropriate wells in 96-well 2 area costar polystyrene plate. 5 μL of 200 μM ATP is added to that mixture in the 96-well 2 area Costar polystyrene plate for final ATP concentration of 40 μM. The reaction is allowed to incubate for 1 hour at room temperature. The reaction is stopped with Perkin Elmer 1× detection buffer containing 30 mM EDTA, 20 nM SA-APC, and 1 nM PT66 Ab. The plate is read using time-resolved fluorescence with a Perkin Elmer Envision using excitation filter 330 nm, emission filter 665 nm, and 2nd emission filter 615 nm. IC50 values are subsequently calculated. Alternatively, the Lanthascreen assay can be used to evaluate Btk activity through quantification of its phosphorylated peptide product. The FRET (Fluorescence Resonance Energy Transfer) that occurs between the fluorescein on the peptide product and the terbium on the detection antibody decreases with the addition of inhibitors of Btk that reduce the phosphorylation of the peptide. In a final reaction volume of 25 μL (microliters), Btk (h) (0.1 ng/25 μl reaction) is incubated with 50 mM Hepes pH 7.5, 10 mM MgCl2, 2 mM MnCl2, 2 mM DTT, 0.2 mM NaVO4, 0.01% BSA, and 0.4 uM fluorescein poly-GAT. The reaction is initiated by the addition of ATP to 25 μM (micromolar) the Km of ATP. After incubation for 60 minutes at room temperature, the reaction is stopped by the addition of a final concentration of 2 nM Tb-PY20 detection antibody in 60 mM EDTA for 30 minutes at room temperature. Detection is determined on a Perkin Elmer Envision with 340 nm excitation and emission at 495 nm and 520 nm. Exemplary Btk inhibition […] values are in Table 1.
As to `CC(C)(C)c1cc(F)c2c(=O)n(-c3nccc(-n4cc(C(N)=O)c(-c5cncnc5)n4)c3CO)ncc2c1` [Example 142, 1-[2-(6-tert-butyl-8-fluoro-1-oxo-phthalazin-2-yl)-3-(hydroxymethyl)-4-pyridyl]-3-pyrimidin-5-yl-pyrazole-4-carboxamide], the Ki stood at 0.135 µM.

On to `CC(C)(C)c1cc(F)c2c(=O)n(-c3nccc(-n4cc(C(N)=O)c(-c5ccncc5)n4)c3CO)ncc2c1` [Example 143, 1-[2-(6-tert-butyl-8-fluoro-1-oxo-phthalazin-2-yl)-3-(hydroxymethyl)-4-pyridyl]-3-(4-pyridyl)pyrazole-4-carboxamide], for which the Ki amounted to 0.1 µM.

`CC(=O)Nc1ccc(-c2nn(-c3ccnc(-n4ncc5cc(C(C)(C)C)cc(F)c5c4=O)c3CO)cc2C(N)=O)cn1` [Example 137, 3-(6-acetamido-3-pyridyl)-1-[2-(6-tert-butyl-8-fluoro-1-oxo-phthalazin-2-yl)-3-(hydroxymethyl)-4-pyridyl]pyrazole-4-carboxamide]: the Ki was 0.115 µM. With `CC(C)(C)c1cc(F)c2c(=O)n(-c3nccc(-n4cc(C(N)=O)c(-c5ccccc5)n4)c3CO)ncc2c1` [Example 114, 1-[2-(6-tert-butyl-8-fluoro-1-oxo-phthalazin-2-yl)-3-(hydroxymethyl)-4-pyridyl]-3-phenyl-pyrazole-4-carboxamide] the figure was 0.184 µM.

Regarding `CN1CCN(c2cc(-c3nn(-c4ccnc(-n5ncc6cc(C(C)(C)C)cc(F)c6c5=O)c4CO)cc3C(N)=O)ccn2)CC1` [Example 136, 1-[2-(6-tert-butyl-8-fluoro-1-oxo-phthalazin-2-yl)-3-(hydroxymethyl)-4-pyridyl]-3-[2-(4-methylpiperazin-1-yl)-4-pyridyl]pyrazole-4-carboxamide], the inhibition constant Ki worked out at 0.0507 µM. As for `CCCC(=O)Nc1nn(-c2ccnc(N3CCn4c(cc5c4CC(C)(C)C5)C3=O)c2CO)cc1C(N)=O` [Example 128, 3-(butanoylamino)-1-[2-(7,7-dimethyl-4-oxo-1,2,6,8-tetrahydrocyclopenta[3,4]pyrrolo[3,5-b]pyrazin-3-yl)-3-(hydroxymethyl)-4-pyridyl]pyrazole-4-carboxamide], the figure is 0.0339 µM; as for `CC(C)(C)c1cc(F)c2c(=O)n(-c3nccc(-n4cc(C(N)=O)c(-c5ccc(CN)cc5)n4)c3CO)ncc2c1` [Example 133, 3-[4-(aminomethyl)phenyl]-1-[2-(6-tert-butyl-8-fluoro-1-oxo-phthalazin-2-yl)-3-(hydroxymethyl)-4-pyridyl]pyrazole-4-carboxamide], 0.156 µM.

Consider `CC(C)(C)c1cc(F)c2c(=O)n(-c3nccc(-n4cc(C(N)=O)c(-c5cncc(S(C)(=O)=O)c5)n4)c3CO)ncc2c1` [Example 139, 1-[2-(6-tert-butyl-8-fluoro-1-oxo-phthalazin-2-yl)-3-(hydroxymethyl)-4-pyridyl]-3-(5-methylsulfonyl-3-pyridyl)pyrazole-4-carboxamide], for which the Ki is more than 0.5 µM.

Regarding `CC(C)(C)c1cc(F)c2c(=O)n(-c3nccc(-n4cc(C(N)=O)c(-c5ccc(O)nc5)n4)c3CO)ncc2c1` [Example 138, 1-[2-(6-tert-butyl-8-fluoro-1-oxo-phthalazin-2-yl)-3-(hydroxymethyl)-4-pyridyl]-3-(6-hydroxy-3-pyridyl)pyrazole-4-carboxamide], the Ki is 0.0827 µM.

Consider `CC(=O)Nc1nn(-c2ccnc(N3CCn4c(cc5c4CC(C)(C)C5)C3=O)c2CO)cc1C(N)=O` [Example 124, 3-acetamido-1-[2-(7,7-dimethyl-4-oxo-1,2,6,8-tetrahydrocyclopenta[3,4]pyrrolo[3,5-b]pyrazin-3-yl)-3-(hydroxymethyl)-4-pyridyl]pyrazole-4-carboxamide], for which the Ki is 0.0138 µM. For `CC(C)Cn1cc(-c2nn(-c3ccnc(-n4ncc5cc(C(C)(C)C)cc(F)c5c4=O)c3CO)cc2C(N)=O)cn1` [Example 134, 1-[2-(6-tert-butyl-8-fluoro-1-oxo-phthalazin-2-yl)-3-(hydroxymethyl)-4-pyridyl]-3-(1-isobutylpyrazol-4-yl)pyrazole-4-carboxamide], the Ki was 0.0269 µM. With `CC(C)(C)c1cc(F)c2c(=O)n(-c3nccc(-n4cc(C(N)=O)c(-c5cnc6ccccc6c5)n4)c3CO)ncc2c1` [Example 140, 1-[2-(6-tert-butyl-8-fluoro-1-oxo-phthalazin-2-yl)-3-(hydroxymethyl)-4-pyridyl]-3-(3-quinolyl)pyrazole-4-carboxamide] the figure was more than 0.5 µM. `CN(C)CCNC(=O)c1cccc(-c2nn(-c3ccnc(-n4ncc5cc(C(C)(C)C)cc(F)c5c4=O)c3CO)cc2C(N)=O)c1` [Example 130, 1-[2-(6-tert-butyl-8-fluoro-1-oxo-phthalazin-2-yl)-3-(hydroxymethyl)-4-pyridyl]-3-[3-[2-(dimethylamino)ethylcarbamoyl]phenyl]pyrazole-4-carboxamide]: the Ki worked out at 0.0438 µM. Consider `CN1CCN(c2ccc(-c3nn(-c4ccnc(-n5ncc6cc(C(C)(C)C)cc(F)c6c5=O)c4CO)cc3C(N)=O)cn2)CC1` [Example 135, 1-[2-(6-tert-butyl-8-fluoro-1-oxo-phthalazin-2-yl)-3-(hydroxymethyl)-4-pyridyl]-3-[6-(4-methylpiperazin-1-yl)-3-pyridyl]pyrazole-4-carboxamide], for which the Ki worked out at 0.0156 µM. As for `CC(C)(C)c1cc(F)c2c(=O)n(-c3nccc(-n4cc(C(N)=O)c(-c5cccnc5)n4)c3CO)ncc2c1` [Example 144, 1-[2-(6-tert-butyl-8-fluoro-1-oxo-phthalazin-2-yl)-3-(hydroxymethyl)-4-pyridyl]-3-(3-pyridyl)pyrazole-4-carboxamide], the figure is 0.124 µM; as for `CC(C)(C)c1cc(F)c2c(=O)n(-c3nccc(-n4cc(C(N)=O)c(-c5ccc(CO)cc5)n4)c3CO)ncc2c1` [Example 141, 1-[2-(6-tert-butyl-8-fluoro-1-oxo-phthalazin-2-yl)-3-(hydroxymethyl)-4-pyridyl]-3-[4-(hydroxymethyl)phenyl]pyrazole-4-carboxamide], 0.155 µM. As for `C[C@H]1CN(C2COC2)CCN1c1ccc(Nc2nn(-c3ccnc(N4CCn5c(cc6c5CC(C)(C)C6)C4=O)c3CO)cc2C(N)=O)nc1` [Example 125, 1-[2-(7,7-dimethyl-4-oxo-1,2,6,8-tetrahydrocyclopenta[3,4]pyrrolo[3,5-b]pyrazin-3-yl)-3-(hydroxymethyl)-4-pyridyl]-3-[[5-[(2S)-2-methyl-4-(oxetan-3-yl)piperazin-1-yl]-2-pyridyl]amino]pyrazole-4-carboxamide], the figure is 0.000296 µM; as for `CC(C)(C)c1cc(F)c2c(=O)n(-c3nccc(-n4cc(C(N)=O)c(-c5cnc6[nH]ccc6c5)n4)c3CO)ncc2c1` [Example 132, 1-[2-(6-tert-butyl-8-fluoro-1-oxo-phthalazin-2-yl)-3-(hydroxymethyl)-4-pyridyl]-3-(1H-pyrrolo[2,3-b]pyridin-5-yl)pyrazole-4-carboxamide], more than 0.5 µM. As for `CC(C)(C)c1cc(F)c2c(=O)n(-c3nccc(-n4cc(C(N)=O)c(-c5cnc(N)cn5)n4)c3CO)ncc2c1` [Example 129, 3-(5-aminopyrazin-2-yl)-1-[2-(6-tert-butyl-8-fluoro-1-oxo-phthalazin-2-yl)-3-(hydroxymethyl)-4-pyridyl]pyrazole-4-carboxamide], the figure is 0.104 µM; as for `CC1(C)Cc2cc3n(c2C1)CCN(c1nccc(-n2cc(C(N)=O)cn2)c1CO)C3=O` [Example 113, 1-[2-(7,7-dimethyl-4-oxo-1,2,6,8-tetrahydrocyclopenta[3,4]pyrrolo[3,5-b]pyrazin-3-yl)-3-(hydroxymethyl)-4-pyridyl]pyrazole-4-carboxamide], 0.124 µM.
